ChEMBL document CHEMBL5241054, “Effective anti-aromatase therapy to battle against estrogen-mediated breast cancer: Comparative SAR/QSAR assessment on steroidal aromatase inhibitors” (Eur J Med Chem, 2020)
pIC50: −log10 of the molar value.

Biological target: T1, Aromatase (Homo sapiens, UniProt P11511)
T1 sequence (P11511 whole entry): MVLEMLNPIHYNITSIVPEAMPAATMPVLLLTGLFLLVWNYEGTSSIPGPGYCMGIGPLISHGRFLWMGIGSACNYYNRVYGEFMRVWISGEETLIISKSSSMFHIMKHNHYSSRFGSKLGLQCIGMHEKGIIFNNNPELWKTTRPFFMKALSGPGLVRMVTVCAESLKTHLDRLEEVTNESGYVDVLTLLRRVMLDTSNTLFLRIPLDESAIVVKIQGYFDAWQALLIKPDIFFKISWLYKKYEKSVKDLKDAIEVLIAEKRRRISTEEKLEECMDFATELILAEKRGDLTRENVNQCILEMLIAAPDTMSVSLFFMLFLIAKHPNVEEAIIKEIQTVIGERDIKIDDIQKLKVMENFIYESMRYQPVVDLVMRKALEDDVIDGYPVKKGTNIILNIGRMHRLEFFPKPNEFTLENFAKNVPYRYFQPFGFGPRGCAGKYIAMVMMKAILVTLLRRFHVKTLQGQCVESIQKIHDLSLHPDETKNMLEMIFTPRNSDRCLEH

Compound	pIC50
C[C@]12CCC(=O)C(O)=C1C(=O)C[C@@H]1[C@@H]2CC[C@]2(C)C(=O)CC[C@@H]12	6.34
C[C@]12C=CC(=O)C=C1[C@H](c1ccccc1)C[C@@H]1[C@@H]2CC[C@]2(C)C(=O)CC[C@@H]12	6.28
C[C@@H]1C[C@@H]2[C@H](CC[C@]3(C)C(=O)CC[C@@H]23)[C@@]2(C)CCCC=C12	7.31
CC[C@]12CCC(=O)C=C1C=C[C@@H]1[C@@H]2CC[C@]2(C)C(=O)CC[C@@H]12	6.52
CC(=O)OC1=C2C=C[C@@H]3[C@H](CC[C@]4(C)C(=O)CC[C@@H]34)[C@@]2(C)CCC1=O	5.10
Cc1ccc(CC[C@@H]2C[C@@]3(C)C(=CC2=O)CC[C@@H]2[C@@H]3CC[C@]3(C)C(=O)CC[C@@H]23)cc1	4.41
C[C@]12CCC(=O)C=C1C=C(c1ccccc1)[C@@H]1[C@@H]2CC[C@]2(C)C(=O)CC[C@@H]12	5.85
C[C@]12CC[C@H]3[C@@H](CCC4=CC(=O)C=C[C@@]43CCl)[C@@H]1CCC2=O	6.02
CC(C)[C@@H]1C[C@@H]2[C@H](CC[C@]3(C)C(=O)CC[C@@H]23)[C@@]2(C)CCC(=O)C=C12	5.96
C[C@]12C=CC(=O)C=C1[C@H](CCCc1ccccc1)C[C@@H]1[C@@H]2CC[C@]2(C)C(=O)CC[C@@H]12	6.16
C[C@]12CCCC=C1[C@H]1C[C@H]1[C@@H]1[C@@H]2CC[C@]2(C)C(=O)CC[C@@H]12	6.82
COC1=C2C=C[C@@H]3[C@H](CC[C@]4(C)C(=O)CC[C@@H]34)[C@@]2(C)CCC1=O	4.96
CCC1=C[C@@H]2[C@H](CC[C@]3(C)C(=O)CC[C@@H]23)[C@@]2(C)C=CC(=O)C=C12	7.38
C[C@]12CCC(=O)C=C1C[C@@H](Sc1ccc(N)cc1)[C@@H]1[C@@H]2CC[C@]2(C)C(=O)CC[C@@H]12	6.80
C[C@]12CCC(=O)C=C1C(CCc1ccccc1)=C[C@@H]1[C@@H]2CC[C@]2(C)C(=O)CC[C@@H]12	7.04
C[C@]12CCCC(=O)C1=CC(=O)[C@@H]1[C@@H]2CC[C@]2(C)C(=O)CC[C@@H]12	5.44
C[C@]12CC[C@H]3[C@@H](CCC4=C(O)C(=O)CC[C@@]43C(F)F)[C@@H]1CCC2=O	5.60
CCC[C@@H]1C[C@@]2(C)C(=CC1=O)CC[C@@H]1[C@@H]2CC[C@]2(C)C(=O)CC[C@@H]12	5.84
C[C@]12CC[C@H]3[C@@H](C=CC4=CC(=O)CC[C@@]43CBr)[C@@H]1CCC2=O	5.85
C[C@]12CCCC(=O)C1=CC[C@@H]1[C@@H]2CC[C@]2(C)C(=O)CC[C@@H]12	5.92
CCCCCC[C@@H]1C[C@@H]2[C@H](CC[C@]3(C)C(=O)CC[C@@H]23)[C@@]2(C)CCC(=O)C=C12	6.37
C#CC[C@]12CCC(=O)C=C1CC[C@@H]1[C@@H]2CC[C@]2(C)C(=O)CC[C@@H]12 [PLOMESTANE]	6.00
COC1=C2CC[C@@H]3[C@H](CC[C@]4(C)C(=O)CC[C@@H]34)[C@@]2(C)CCC1=O	5.14

Compound	pIC50
CCCC[C@H]1C[C@@H]2[C@H](CC[C@]3(C)[C@@H](O)CC[C@@H]23)c2ccc(O)cc21	4.55
C[C@]12CC[C@H]3[C@@H](C=CC45OC4C(=O)CC[C@]35C)[C@@H]1CCC2=O (stereo partly drawn)	4.82
C[C@]12C=CC(=O)C=C1[C@@H](CCCCc1ccccc1)C[C@@H]1[C@@H]2CC[C@]2(C)C(=O)CC[C@@H]12	6.64
C[C@]12CC[C@H]3[C@@H](CCC4=CC(=O)CC[C@@]43CCCl)[C@@H]1CCC2=O	5.10
C[C@]12C=CC(=O)C=C1C(CCCCCc1ccccc1)=C[C@@H]1[C@@H]2CC[C@]2(C)C(=O)CC[C@@H]12	7.00
C[C@]12CCCCC1=CC(=O)[C@@H]1[C@@H]2CC[C@]2(C)C(O)CC[C@@H]12 (stereo partly drawn)	5.80
C[C@]12C=C(O)C(=O)C=C1C(=O)C[C@@H]1[C@@H]2CC[C@]2(C)C(=O)CC[C@@H]12	5.25
C[C@]12CCCCC1=CC(=O)[C@@H]1[C@@H]2CC[C@]2(C)C(=O)CC[C@@H]12	5.64
C[C@]12CCC(=O)C(O)=C1C=C[C@@H]1[C@@H]2CC[C@]2(C)C(=O)CC[C@@H]12	6.00
Cc1ccc(CCC2=C[C@@]3(C)C(=CC2=O)CC[C@@H]2[C@@H]3CC[C@]3(C)C(=O)CC[C@@H]23)cc1	5.20
CCCCC[C@H]1C[C@@H]2[C@H](CC[C@]3(C)C(=O)CC[C@@H]23)[C@@]2(C)C=CC(=O)C=C12	6.85
CO[C@@H]1C[C@@H]2[C@H](CC[C@]3(C)C(=O)CC[C@@H]23)[C@@]2(C)CCCC=C12	7.30
C[C@]12CCC(=O)C=C1[C@@H](CCCCc1ccccc1)C[C@@H]1[C@@H]2CC[C@]2(C)C(=O)CC[C@@H]12	3.47
C[C@]12CC[C@H]3[C@@H](CCC4=CC(=O)C=C[C@@]43CBr)[C@@H]1CCC2=O	6.00
CC(=O)OC1CC[C@H]2[C@@H]3CCC4=CCCC[C@]4(CO)[C@H]3CC[C@]12C (stereo partly drawn)	4.00
CCCCCC1=C[C@@]2(C)C(=CC1=O)CC[C@@H]1[C@@H]2CC[C@]2(C)C(=O)CC[C@@H]12	6.13
C[C@]12CCC(=O)C(F)=C1CC[C@@H]1[C@@H]2CC[C@]2(C)C(=O)CC[C@@H]12	6.32
CCCCCCCC[C@H]1C[C@@H]2[C@H](CC[C@]3(C)C(=O)CC[C@@H]23)[C@@]2(C)CCC(=O)C=C12	5.29
C[C@]12CC[C@@H]3C4CCC(=O)C(F)=C4CC[C@H]3[C@@H]1CCC2=O (stereo partly drawn)	6.40
C[C@]12CC[C@H]3[C@@H](C(=O)C=C4C=CCC[C@@]43CO)[C@@H]1CCC2=O	4.22
C[C@]12CCC(=O)C=C1[C@@H](O)C[C@@H]1[C@@H]2CC[C@]2(C)C(=O)CC[C@@H]12	4.82
CCCCCC[C@H]1C[C@@H]2[C@H](CC[C@]3(C)C(=O)CC[C@@H]23)[C@@]2(C)CCCC=C12	5.05
CC[C@@H]1C[C@@H]2[C@H](CC[C@]3(C)C(=O)CC[C@@H]23)[C@@]2(C)CCCC=C12	6.50

Compound	pIC50
CC(=O)OC1=C2CC[C@@H]3[C@H](CC[C@]4(C)C(=O)CC[C@@H]34)[C@@]2(C)CCC1=O	5.82
C[C@]12CCC[C@H](O)C1=CC(=O)[C@@H]1[C@@H]2CC[C@]2(C)C(=O)CC[C@@H]12	5.20
CC1C[C@H]2[C@@H]3CC[C@H](O)[C@@]3(C)CC[C@@H]2[C@@]2(C)CCC(=O)C=C12 (stereo partly drawn)	7.75
C[C@]12CCCC=C1CC[C@@H]1[C@@H]2CC[C@]2(C)C(=O)[C@H](Br)C[C@@H]12	5.39
C[C@]12CCC(=O)C=C1[C@H](Cc1ccccc1)C[C@@H]1[C@@H]2CC[C@]2(C)C(=O)CC[C@@H]12	5.40
C[C@]12CC[C@H]3[C@@H](CCC4=CC(=O)CC[C@@]43C#N)[C@@H]1CCC2=O	4.60
C[C@]12CCC(=O)C=C1C[C@H](CCc1ccccc1)[C@@H]1[C@@H]2CC[C@]2(C)C(=O)CC[C@@H]12	7.40
CCCC[C@H]1C[C@@H]2[C@H](CC[C@]3(C)C(=O)CC[C@@H]23)c2ccc(O)cc21	4.46
C[C@]12CC[C@H]3[C@@H](C(=O)C=C4C(=O)CCC[C@@]43C)[C@@H]1CC[C@@H]2O	4.24
C[C@]12C=CC(=O)C=C1[C@@H](c1ccccc1)C[C@@H]1[C@@H]2CC[C@]2(C)C(=O)CC[C@@H]12	6.17
C[C@]12CC[C@@H]3c4ccc(O)c(NC(=O)c5ccccn5)c4CC[C@H]3[C@@H]1CCC2=O	3.69
C[C@]12C[C@@H](CCc3ccc(C(F)(F)F)cc3)C(=O)C=C1CC[C@@H]1[C@@H]2CC[C@]2(C)C(=O)CC[C@@H]12	4.33
C[C@]12C=CC(=O)C=C1[C@@H](CCCCCc1ccccc1)C[C@@H]1[C@@H]2CC[C@]2(C)C(=O)CC[C@@H]12	6.48
C[C@]12CC[C@H]3[C@@H](CCC4=CC(=O)CC[C@@]43C(F)F)[C@@H]1CC[C@@H]2O	6.38
CC[C@]12C=CC(=O)C=C1C=C[C@H]1[C@@H]3CCC(=O)[C@@]3(C)CC[C@@H]12	6.44
C[C@]12CC[C@@H]3c4ccc(O)c(C=O)c4CC[C@H]3[C@@H]1CC[C@@H]2O	4.55
C[C@]12C=C(Cc3ccccc3)C(=O)C=C1CC[C@@H]1[C@@H]2CC[C@]2(C)C(=O)CC[C@@H]12	4.06
Cc1ccc(S(=O)(=O)N2[C@H]3[C@@H]4[C@H](CC[C@]5(C)C(=O)CC[C@@H]45)[C@@]4(C)CCC(=O)C=C4[C@H]32)cc1 (stereo partly drawn)	4.03
CO[C@@H]1C[C@@H]2[C@H](CC[C@]3(C)C(=O)CC[C@@H]23)c2ccc(O)cc21	4.31
CC[C@H]1C[C@@H]2[C@H](CC[C@]3(C)C(=O)CC[C@@H]23)[C@@]2(C)CCC(=O)C=C12	6.58
C[C@]12CCC(=O)c3nn(Cc4cccc([N+](=O)[O-])c4)c(c31)C[C@@H]1[C@@H]2CC[C@]2(C)C(=O)CC[C@@H]12	6.31
C[C@@H]1C[C@@H]2[C@H](CC[C@]3(C)C(O)CC[C@@H]23)[C@@]2(C)CCCC=C12 (stereo partly drawn)	5.43
